In EP0256125A1, “MEANS FOR PREVENTING MICROBIOLOGICAL OVERGROWING OF HARD SURFACE” (priority 1985, dated 1987):

How the values were obtained:
[1] = Solubility in solvents (qualitative); settings: for Löslichkeit im Alkohol: Alkohol (Ethylalkohol)
[2] = system: Acremonium corvum; assay: Fungicidal activity, inhibition of mycelium growth on wort agar; assay type: cell-based
Source text: (§1) Man prüfte die funguzide Aktivität von Zink-bis-(N-vi- nyloxyethyl)dithiocarbamat gegenüber den reinen Pilzkulturen: Gladosporium resinae, Cladosporium cladosporioides, Acremonium corvum, Acremonium charticola, Penicillium charlesii Smith, Walrotiela subiculesa, Geotrichum candidum Link, Oidium, Penicillium crysogenum. Die genannten Pilze wurden von den Oberflächen der Wände und Decken von Bierbrauereien und Werken für die Herstellung von alkoholfreien Getränken ausgeschieden.
(§2) […] In eine der Petri-Schalen wurde Nährboden mit 1 ml Azeton (Kontrolle) gegossen.
(§3) In 18 bis 20 Stunden nach dem Vergießen des Nährbodens in die Petri-Schalen führte man die Inokulation der reinen Pilzkultur durch, die vorher an einem Schräg-Würzeagar während 15 Tage gezüchtet wurden. Die Inkubation führte man bei einer Temperatur von 25 bis 27°C während 5 Tage durch. Danach wurde der Durchmesser der Pilzkolonien gemessen und der Prozentsatz der Hemmung des Wachstums des Myzeliums (S) nach der Abbott -Formel gezählt: [formula] worin dc Durchmesser der Pilzkolonien in Kontrolle ist, de =Durchmesser der Pilzkolonien in einer Schale mit dem Nährboden ist, der Zink-bis-(N-vinyloxyethyl)dithiocarbamat enthält.

[3] = system: Penicillium charlesii Smith; assay: as above; assay type: cell-based
Source text: as §1, §2, §3

[4] = system: Penicillium chrysogenum; assay: as above; assay type: cell-based
Source text: as §1, §2, §3

[5] = system: Cladosporium cladosporioides; assay: as above; assay type: cell-based
Source text: as §1, §2, §3

[6] = system: Walrotiela subiculesa; assay: as above; assay type: cell-based
Source text: as §1, §2, §3

[7] = system: Acremonium charticola; assay: as above; assay type: cell-based
Source text: as §1, §2, §3

[8] = system: Geotrichum candidum Link; assay: as above; assay type: cell-based
Source text: as §1, §2, §3

[9] = system: Cladosporium resinae; assay: as above; assay type: cell-based
Source text: as §1, §2, §3

[10] = system: Schimmelpilzen, die die Bewachsung von Oberflächen hervorrufen; assay: Fungicidal activity, summary over all tested fungi; assay type: cell-based; settings: day 5
Source text: as §1
Es wurden Lösungen des Zink-bis-(N-vinyloxyethyl)di- thiocarbamats im Azeton verschiedener Konzentration hergestellt, die so berechnet wurde, daß bei der Einführung vor 1 ml Lösung in 10 ml des geschmolzenen Würzeagars (45-50°C) die Konzentration des genannten Stoffes im Medium von 0,0015 bis 0,012% betrug. In eine der Petri-Schalen wurde Nährboden mit 1 ml Azeton (Kontrolle) gegossen.
as §3

[11] = Storage stability (qualitative); assay type: physicochemical; settings: result in words
[12] = system: p.Pseudomonas; assay: Bactericidal activity, growth on agar medium; assay type: cell-based; settings: 37°C, 5 Tage
Protocol: (§4) Die bakterizide Aktivität des Kalium N-(vinyloxyethyl)-dithiocarbamats gegenüber den Bakterien, die von der Oberfläche von Wänden und Decken der Produktionsräume von Brauereien und Fabriken zur Herstellunq von alkoholfreien Getränken ausgeschieden wurden und die zu p.p.Bacillus, Micrococcus, Pseudomonas, Escherichiae gehören, wurde geprüft.
(§5) Es wurden wäßrige Lösungen des genannten Stoffes verschiedener Konzentration hergestellt, die so berechnet wurde, daß bei Einführung von 1 ml der Lösung in 25 ml geschmolzenen agarisierten Nährboden (45-50°C) die Konzentration des Stoffes im Nährboden von 0,003 bis 0,5% betrug. In 18 bis 24 Stunden wurde auf die Oberfläche des Nährbodens 0,1 ml der wäßrigen Suspension der eintägigen reinen Bakterienkulturen aufgetragen, die am Fleisch-Pepton-Agar gezüchtet wurden. Die Suspension wurde gleichmäßig verteilt. In Kontrollschalen wurden 0,1 ml Wasser auf der Oberfläche des Närhbodens verteilt.
(§6) Die Inkubation führte man bei einer Temperatur von 37°C während 5 Tage durch.
(§7) Die effektive Wirkung des Stoffes wurde nach dem Auftreten des Bakterienwachstums an der Oberfläche des Nährbodens bewertet.

[13] = system: p.Micrococcus; assay: Bactericidal activity, growth on agar medium; assay type: cell-based; settings: 37°C, 5 Tage
Protocol: as §4, §5, §6, §7

[14] = system: p.Bacillus; assay: Bactericidal activity, growth on agar medium; assay type: cell-based; settings: 37°C, 5 Tage
Protocol: as §4, §5, §6, §7

[15] = system: p. Escherichiae; assay: Bactericidal activity, growth on agar medium; assay type: cell-based; settings: 37°C, 5 Tage
Protocol: as §4, §5, §6, §7

[16] = system: Oidium; assay: Fungicidal activity, inhibition of mycelium growth on wort agar; assay type: cell-based
Source text: as §1, §2, §3

[17] = system: weißen Mäusen; assay: Acute toxicity in white mice; settings: perorale Einführung bei weißen Mäusen
[18] = Konzentration des Stoffes 0,01 %
[19] = Konzentration des Stoffes 0,1 % (0,10)
[20] = Konzentration des Stoffes 0,02 %
[21] = Konzentration des Stoffes 0,05 %
[22] = Konzentration des Stoffes 0,005 %
[23] = Konzentration des Stoffes 0,0015 %
[24] = Konzentration des Stoffes 0,003 %
[25] = Konzentration des Stoffes 0,006 %
[26] = Konzentration des Stoffes 0,012 %

## Kupfer bis-(N-vinyloxyethyl) dithiocarbamat
[1]
  Löslichkeit im Alkohol: bearenzt löslich
  Löslichkeit im Azeton: bearenzt löslich
  Löslichkeit im Dimethylsulfoxid: gut löslich
  Löslichkeit in Wasser: bearenzt löslich
[1]; Diethylether
  Löslichkeit im Diethylether: nicht löslich
[2]; [18]
  Hemmung des Myzeliums am 5. Tag des Wachstums, Acremonium corvum: 100%
[2]; [19]
  Hemmung des Myzeliums am 5. Tag des Wachstums, Acremonium corvum: 100%
[2]; [20]
  Hemmung des Myzeliums am 5. Tag des Wachstums, Acremonium corvum: 100%
[2]; [21]
  Hemmung des Myzeliums am 5. Tag des Wachstums, Acremonium corvum: 100%
[2]; [22]
  Hemmung des Myzeliums am 5. Tag des Wachstums, Acremonium corvum: 100%
[3]; [18]
  Hemmung des Myzeliums am 5. Tag des Wachstums, Penicillium charlesii Smith: 30%
[3]; [19]
  Hemmung des Myzeliums am 5. Tag des Wachstums, Penicillium charlesii Smith: 100%
[3]; [20]
  Hemmung des Myzeliums am 5. Tag des Wachstums, Penicillium charlesii Smith: 80%
[3]; [21]
  Hemmung des Myzeliums am 5. Tag des Wachstums, Penicillium charlesii Smith: 100%
[3]; [22]
  Hemmung des Myzeliums am 5. Tag des Wachstums, Penicillium charlesii Smith: 15%
[4]; [18]
  Hemmung des Myzeliums am 5. Tag des Wachstums, Penicillium chrysogenum: 25%
[4]; [19]
  Hemmung des Myzeliums am 5. Tag des Wachstums, Penicillium chrysogenum: 100%
[4]; [20]
  Hemmung des Myzeliums am 5. Tag des Wachstums, Penicillium chrysogenum: 36%
[4]; [21]
  Hemmung des Myzeliums am 5. Tag des Wachstums, Penicillium chrysogenum: 70%
[4]; [22]
  Hemmung des Myzeliums am 5. Tag des Wachstums, Penicillium chrysogenum: 10%
[5]; [18]
  Hemmung des Myzeliums am 5. Tag des Wachstums, Cladosporium cladosporioides: 36%
[5]; [19]
  Hemmung des Myzeliums am 5. Tag des Wachstums, Cladosporium cladosporioides: 100%
[5]; [20]
  Hemmung des Myzeliums am 5. Tag des Wachstums, Cladosporium cladosporioides: 65%
[5]; [21]
  Hemmung des Myzeliums am 5. Tag des Wachstums, Cladosporium cladosporioides: 80%
[5]; [22]
  Hemmung des Myzeliums am 5. Tag des Wachstums, Cladosporium cladosporioides: 15%
[6]; [18]
  Hemmung des Myzeliums am 5. Tag des Wachstums, Walrotiela subiculesa: 0%
[6]; [19]
  Hemmung des Myzeliums am 5. Tag des Wachstums, Walrotiela subiculesa: 100%
[6]; [20]
  Hemmung des Myzeliums am 5. Tag des Wachstums, Walrotiela subiculesa: 10%
[6]; [21]
  Hemmung des Myzeliums am 5. Tag des Wachstums, Walrotiela subiculesa: 37%
[6]; [22]
  Hemmung des Myzeliums am 5. Tag des Wachstums, Walrotiela subiculesa: 0%
[7]; [18]
  Hemmung des Myzeliums am 5. Tag des Wachstums, Acremonium charticola: 96%
[7]; [19]
  Hemmung des Myzeliums am 5. Tag des Wachstums, Acremonium charticola: 100%
[7]; [20]
  Hemmung des Myzeliums am 5. Tag des Wachstums, Acremonium charticola: 100%
[7]; [21]
  Hemmung des Myzeliums am 5. Tag des Wachstums, Acremonium charticola: 100%
[7]; [22]
  Hemmung des Myzeliums am 5. Tag des Wachstums, Acremonium charticola: 70%
[8]; [18]
  Hemmung des Myzeliums am 5. Tag des Wachstums, Geotrichum candidum Link: 100%
[8]; [19]
  Hemmung des Myzeliums am 5. Tag des Wachstums, Geotrichum candidum Link: 100%
[8]; [20]
  Hemmung des Myzeliums am 5. Tag des Wachstums, Geotrichum candidum Link: 100%
[8]; [21]
  Hemmung des Myzeliums am 5. Tag des Wachstums, Geotrichum candidum Link: 100%
[8]; [22]
  Hemmung des Myzeliums am 5. Tag des Wachstums, Geotrichum candidum Link: 100%
[9]; [18]
  Hemmung des Myzeliums am 5. Tag des Wachstums, Cladosporium resinae: 34%
[9]; [19]
  Hemmung des Myzeliums am 5. Tag des Wachstums, Cladosporium resinae: 100%
[9]; [20]
  Hemmung des Myzeliums am 5. Tag des Wachstums, Cladosporium resinae: 80%
[9]; [21]
  Hemmung des Myzeliums am 5. Tag des Wachstums, Cladosporium resinae: 90%
[10]
  Konzentration, bei der die Entwicklung aller untersuchten Pilze vollständig gehemmt wurde: 0,1%
[11]
  Lagerbeständigkeit: lagerbeständig
[12]
  Konzentration der Salze der N-(vinyloxyethyl)dithiocarbaminsäure (100%), die das Wachstum der Bakterien am 5. Tag des Wachstums hemmen, p.Pseudomonas: 0,15%
[13]
  Konzentration der Salze der N-(vinyloxyethyl)dithiocarbaminsäure (100%), die das Wachstum der Bakterien am 5. Tag des Wachstums hemmen, p.Micrococcus: 0,15%
[14]
  Konzentration der Salze der N-(vinyloxyethyl)dithiocarbaminsäure (100%), die das Wachstum der Bakterien am 5. Tag des Wachstums hemmen, p.Bacillus: 0,15%
[15]
  Konzentration der Salze der N-(vinyloxyethyl)dithiocarbaminsäure (100%), die das Wachstum der Bakterien am 5. Tag des Wachstums hemmen, p. Escherichiae: 0,15%

## Zink-bis-(N-vinyloxyethyl)dithiocarbamat
[1]
  Löslichkeit im Alkohol: begrenzt
  Löslichkeit im Azeton: begrenzt
  Löslichkeit im Dimethylsulfoxid: gut
  Löslichkeit in Wasser: unlöslich
[16]; [23]
  Hemmung des Myzeliums am 5. Tag des Wachstums, Oidium: 80%
[16]; [24]
  Hemmung des Myzeliums am 5. Tag des Wachstums, Oidium: 100%
[16]; [25]
  Hemmung des Myzeliums am 5. Tag des Wachstums, Oidium: 100%
[16]; [26]
  Hemmung des Myzeliums am 5. Tag des Wachstums, Oidium: 100%
[2]; [23]
  Hemmung des Myzeliums am 5. Tag des Wachstums, Acremonium corvum: 40%
[2]; [24]
  Hemmung des Myzeliums am 5. Tag des Wachstums, Acremonium corvum: 100%
[2]; [25]
  Hemmung des Myzeliums am 5. Tag des Wachstums, Acremonium corvum: 100%
[2]; [26]
  Hemmung des Myzeliums am 5. Tag des Wachstums, Acremonium corvum: 100%
[3]; [23]
  Hemmung des Myzeliums am 5. Tag des Wachstums, Penicillium charlesii Smith: 90%
[3]; [24]
  Hemmung des Myzeliums am 5. Tag des Wachstums, Penicillium charlesii Smith: 100%
[3]; [25]
  Hemmung des Myzeliums am 5. Tag des Wachstums, Penicillium charlesii Smith: 100%
[3]; [26]
  Hemmung des Myzeliums am 5. Tag des Wachstums, Penicillium charlesii Smith: 100%
[4]; [23]
  Hemmung des Myzeliums am 5. Tag des Wachstums, Penicillium chrysogenum: 10%
[4]; [24]
  Hemmung des Myzeliums am 5. Tag des Wachstums, Penicillium chrysogenum: 40%
[4]; [25]
  Hemmung des Myzeliums am 5. Tag des Wachstums, Penicillium chrysogenum: 80%
[4]; [26]
  Hemmung des Myzeliums am 5. Tag des Wachstums, Penicillium chrysogenum: 100%
[5]; [23]
  Hemmung des Myzeliums am 5. Tag des Wachstums, Cladosporium cladosporioides: 100%
[5]; [24]
  Hemmung des Myzeliums am 5. Tag des Wachstums, Cladosporium cladosporioides: 100%
[5]; [25]
  Hemmung des Myzeliums am 5. Tag des Wachstums, Cladosporium cladosporioides: 100%
[5]; [26]
  Hemmung des Myzeliums am 5. Tag des Wachstums, Cladosporium cladosporioides: 100%
[6]; [23]
  Hemmung des Myzeliums am 5. Tag des Wachstums, Walrotiela subiculesa: 52%
[6]; [24]
  Hemmung des Myzeliums am 5. Tag des Wachstums, Walrotiela subiculesa: 100%
[6]; [25]
  Hemmung des Myzeliums am 5. Tag des Wachstums, Walrotiela subiculesa: 100%
[6]; [26]
  Hemmung des Myzeliums am 5. Tag des Wachstums, Walrotiela subiculesa: 100%
[7]; [23]
  Hemmung des Myzeliums am 5. Tag des Wachstums, Acremonium charticola: 50%
[7]; [24]
  Hemmung des Myzeliums am 5. Tag des Wachstums, Acremonium charticola: 100%
[7]; [25]
  Hemmung des Myzeliums am 5. Tag des Wachstums, Acremonium charticola: 100%
[7]; [26]
  Hemmung des Myzeliums am 5. Tag des Wachstums, Acremonium charticola: 100%
[8]; [23]
  Hemmung des Myzeliums am 5. Tag des Wachstums, Geotrichum candidum Link: 29%
[8]; [24]
  Hemmung des Myzeliums am 5. Tag des Wachstums, Geotrichum candidum Link: 100%
[8]; [25]
  Hemmung des Myzeliums am 5. Tag des Wachstums, Geotrichum candidum Link: 100%
[8]; [26]
  Hemmung des Myzeliums am 5. Tag des Wachstums, Geotrichum candidum Link: 100%
[9]; [23]
  Hemmung des Myzeliums am 5. Tag des Wachstums, Cladosporium resinae: 37,5%
[9]; [24]
  Hemmung des Myzeliums am 5. Tag des Wachstums, Cladosporium resinae: 100%
[9]; [25]
  Hemmung des Myzeliums am 5. Tag des Wachstums, Cladosporium resinae: 100%
[9]; [26]
  Hemmung des Myzeliums am 5. Tag des Wachstums, Cladosporium resinae: 100%
[10]
  Konzentration, bei der die Entwicklung aller untersuchten Pilze vollständig gehemmt wurde: 0,012%
[17]
  LD50: 1120 + 260 mg/kg
[12]
  Konzentration der Salze der N-(vinyloxyethyl)dithiocarbaminsäure (100%), die das Wachstum der Bakterien am 5. Tag des Wachstums hemmen, p.Pseudomonas: 0,05%
[13]
  Konzentration der Salze der N-(vinyloxyethyl)dithiocarbaminsäure (100%), die das Wachstum der Bakterien am 5. Tag des Wachstums hemmen, p.Micrococcus: 0,05%
[14]
  Konzentration der Salze der N-(vinyloxyethyl)dithiocarbaminsäure (100%), die das Wachstum der Bakterien am 5. Tag des Wachstums hemmen, p.Bacillus: 0,05%
[15]
  Konzentration der Salze der N-(vinyloxyethyl)dithiocarbaminsäure (100%), die das Wachstum der Bakterien am 5. Tag des Wachstums hemmen, p. Escherichiae: 0,05%
